Among the data in BindingDB's records for doi:10.1021/jm801416q (Pharmacopeia, 2010) are IC50 values, retold here.

Broadly, the pIC50 is the negative decadic logarithm of the IC50, by convention in mol/L.

pIC50: −log10 of the molar value.

The nature of this experiment: Antagonist activity at human CCR1 in THP1 cells assessed as inhibition of MIP-1-alpha-induced chemotaxis after 3 hrs.
For the compound `Cc1cc(C(F)(F)F)ccc1NC(=O)N1CCC[C@@H]1C(=O)N(C)Cc1ccc(Cl)cc1` [(R)-N2-(4-Chlorobenzyl)-N2-methyl-N1-[2-methyl-4-(trifluoromethyl)phenyl]pyrrolidine-1,2-dicarboxamide], the pIC50 is 7.80.
The result for `Cc1cc(C(F)(F)F)cc(C)c1NC(=O)N1CCC[C@@H]1C(=O)N(C)Cc1ccc(Cl)cc1` [(R)-N2-(4-Chlorobenzyl)-N1-[2,6-dimethyl-4-(trifluoromethyl)phenyl]-N2-methylpyrrolidine-1,2-dicarboxamide] reads 8.22.
The figure for `CN(Cc1ccc(Cl)cc1)C(=O)[C@H]1CCCN1C(=O)Nc1ccc(C(F)(F)F)cc1Cl` [(R)-N2-(4-Chlorobenzyl)-N1-[2-chloro-4-(trifluoromethyl)phenyl]-N2-methylpyrrolidine-1,2-dicarboxamide] is 7.46; for `COc1ccc(NC(=O)N2CCC[C@@H]2C(=O)N(C)Cc2ccc(Cl)cc2)cc1` [(R)-N2-(4-Chlorobenzyl)-N1-(4-methoxyphenyl)-N2-methylpyrrolidine-1,2-dicarboxamide] it is 6.36.
